Results taken from the supplement of paper PMC10307832.

Tests used:
AT-7519 = compound: O=C(NC1CCNCC1)c1n[nH]cc1NC(=O)c1c(Cl)cccc1Cl [AT-7519]; test: relative viability (nuclei count vs DMSO), 5 days (fraction); higher = more cells survive
How it was run: (§1)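 Viability was read as treated-well nuclei divided by vehicle-well nuclei, using the median across plates. Lung cancer cell lines in 1536-well plates were kept overnight at 37 °C, pinned with five √10-spaced library-drug doses, and after 5 days were Hoechst-stained, imaged at 4× and counted in MetaXpress. Plates passed only with control CV below 25% and at least one doubling.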

[1] = compound: C1=CC2=C(C=C(C(=C2N=C1)O)N=NC3=CC4=C(C=C3)C=C(C=C4)S(=O)(=O)O)S(=O)(=O)O; test: as above
How it was run: as §1

| Cell Line | relative viability (AT-7519; 0.01 µM) | relative viability (AT-7519; 0.03162 µM) | relative viability (AT-7519; 0.3162 µM) | relative viability (AT-7519; 1 µM) | relative viability ([1]; 0.08 µM) | relative viability ([1]; 0.253 µM) | relative viability ([1]; 0.8 µM) | relative viability ([1]; 2.53 µM) | relative viability ([1]; 8 µM) |
| --- | --- | --- | --- | --- | --- | --- | --- | --- | --- |
| HCC-78 | 0.999 | 0.93 | 1.06 | 1.05 | 1.03 | 0.957 | 0.894 | 1.03 | 0.95 |
| HCC-366 | 1.06 | 1.03 | 0.993 | 0.926 | 1.04 | 0.964 | 0.993 | 0.997 | 0.897 |
| HCC-827 | 1.04 | 1.04 | 1.02 | 0.997 | 1.08 | 0.997 | 1.01 | 1.02 | 1.04 |
| HOP-62 | 0.949 | 0.949 | 1.04 | 1.04 | 1.06 | 0.931 | 0.964 | 1.03 | 1.04 |
| IA-LM | 0.912 | 0.874 | 0.856 | 0.854 | 1.02 | 0.954 | 0.785 | 0.896 | 0.934 |
| LC-2-ad | 0.996 | 0.99 | 1.01 | 0.909 | 1.02 | 0.902 | 0.978 | 0.995 | 0.945 |
| LCLC-97TM1 | 0.918 | 0.892 | 0.844 | 0.47 | 1.16 | 0.873 | 0.833 | 0.926 | 0.999 |
| LCLC-103H | 1.08 | 0.983 | 1.01 | 1.07 | 1.02 | 0.998 | 0.976 | 1.02 | 1.03 |
| LK-2 | 0.961 | 0.934 | 0.857 | 0.682 | 1.05 | 0.973 | 0.876 | 0.911 | 0.797 |
| LOU-NH91 | 0.93 | 0.963 | 0.956 | 0.933 | 0.964 | 0.978 | 0.99 | 0.989 | 0.948 |
| LU99A | 1.02 | 0.857 | 0.826 | 0.974 | 1.02 | 0.936 | 0.901 | 0.95 | 0.948 |
| LXF-289 | 1 | 0.938 | 1.01 | 1.02 | 1.09 | 0.958 | 1.01 | 1.04 | 0.955 |
| NCI-H23 | 0.856 | 0.858 | 0.912 | 0.616 | 0.912 | 0.873 | 0.932 | 1.04 | 0.9 |
| NCI-H322M | 0.913 | 0.947 | 0.773 | 0.798 | 1.07 | 0.93 | 0.901 | 0.877 | 0.951 |
| NCI-H358 | 0.889 | 0.86 | 0.85 | 0.31 | 1.08 | 0.978 | 0.841 | 0.943 | 1.01 |
| NCI-H441 | 1.03 | 1.02 | 1.05 | 0.523 | 1.16 | 0.942 | 0.898 | 1.06 | 0.947 |
| NCI-H460 | 1 | 0.89 | 0.982 | 0.601 | 1.07 | 0.992 | 0.977 | 0.987 | 0.945 |
| NCI-H520 | 1.06 | 0.925 | 0.915 | 0.695 | 1.09 | 0.926 | 1.02 | 0.985 | 1.08 |
| NCI-H522 | 0.814 | 0.933 | 0.873 | 0.897 | 0.965 | 0.984 | 0.872 | 1.02 | 0.774 |
